From patent publication US20060110481A1, “COMPOSITIONS CONTAINING VITEX AGNUS-CASTUS BERRY OIL FOR COSMECEUTICAL APPLICATIONS AND METHOD OF ISOLATION OF THE ACTIVE COMPONENT” (SAMI LABS LIMITED, priority 2004, published 2006) come the findings set out here.

Type in all cases: cell-based
Test [1] relates to E. coli. Nature of the test: Disc diffusion antimicrobial study against E. coli. The protocol:
(§1) Procedure: Medium used for this study was reinforced clostridial Agar (RCA). The medium which was prepared and sterilized in 30 ml vials was poured into the plates inside the chamber and allowed to solidity. The culture was inoculated [0.3 ml/plate] into the plates and spread. After 30 minutes, antibacterial sterile discs [6 mm] were dispensed (2/plate), and 2.5, 5.0, 7.5 and 10 μl of the prepared samples and controls were dispensed onto the discs. The plates were incubated inside the anaerobic chamber at 37° C. for 48 hours duration.
(§2) Antimicrobial studies of Vitex oil against general pathogenic aerobic bacteria such as E. coli and S. aureus were also carried out. E. coli was grown in lactose broth and S. aureus in nutrient broth. The method used was the same as it was followed for P. acnes. Clindac A (Clindamycin phosphate gel 1% w/w) was used as positive control. The clearence zone formed around the discs were measured and expressed in mm.

Test [2] deals with S. aureus. Put plainly: Disc diffusion antimicrobial study against S. aureus. How it is done: as §1, §2
Test [3] has as its system Propionibacterium acnes ATCC 11827. Nature of the test: Direct bioautography on thin layer chromatograms. Particulars: TLC bioautography, P. acnes. How it is done: The antibacterial effects of aqueous, methanolic Vitex agnus castus fruit extract and various extract fractions of different polarities were evaluated by bioautography technique. […] Further fractionation of oil has been done by Silica gel chromatography. Silica gel was been loaded more than half quantity of oil and fraction was collected from mobile phase, hexane, chloroform, 50% chloroform, chloroform, 10% methanol, 50% Methanol and Methanol alone. Active fraction was identified by bioautography technique.
Direct bioautography is the technique used to localize antibacterial activity on a chromatogram. (Lund et al. 1975)
In the present study, the separated fractions of Vitex oil were subjected to Thin Layer Chromatography on silica gel. The solvent system used was hexane: chloroform in 7:3 proportion [FIG. 1]. These chromatograms were dried in the oven at 60° C. for 1 hour to eliminate the traces of solvents. This can be visualized either by spraying the thin layer chromatogram with 5% methanolic sulphuric acid followed by heat drying or under UV light. The plates were taken to the anaerobic chamber where the bioautography experiment was carried out. The medium used was reinforced clostridial agar medium. […]
After incubation, 1-1.2 ml of tetrazolium salt solution [2% concentration] was sprayed as a coloring reagent on the plates. […] The diameter of the zones were measured and expressed in mm.

In the case of `COc1ccc(-c2oc3cc(OC)c(OC)c(O)c3c(=O)c2OC)cc1OC` [Artemetin], the MIC in test [1] (E. coli) and in test [2] (S. aureus) was 1.0% throughout. Besides, the zone of inhibition at 0.5 % strength in test [1] (Escherichia coli, concentration 0.5 % w/v) was 0 mm; in test [2] (Staphylococcus aureus, concentration 0.5 % w/v) it was 0 mm. The zone of inhibition at 1 % strength in test [1] (Escherichia coli, concentration 1 % w/v) was determined as 9 mm; in test [2] (Staphylococcus aureus, concentration 1 % w/v), 8 mm. Besides, the zone of inhibition at 5 % strength in test [1] (Escherichia coli, concentration 5 % w/v) stood at 12 mm; in test [2] (Staphylococcus aureus, concentration 5 % w/v), 10 mm. Further, the “Antibacterial activity by bioautography (in words)” value in test [3] is “Clearance zone was exhibited”.
